Source: patent US12522576B2, “Polymorphs of D9-THC naphthoylester” (priority 2019, dated 2026)
Values after ≈ are worked out from the molar mass of the structure shown.

Columns and labels:
[1] = Competitive ripening (relative thermodynamic stability of non-solvated forms)
[2] = D9 solubility in the liquors at isolation temperature; format: physicochemical; conditions: organic solvent or mixture, thermodynamic from solid
Method: At the end of each experiment, suspensions were equilibrated at the isolation temperature (25 or 5° C.) for at least 18 hours and the solids and liquors separated by centrifugation at the isolation temperature. The Exo/D9/D8 ratio (Exo-D9-THC-naphthoylester impurity/D9-THC-naphthoylester/D8-THC-naphthoylester) was determined in both the isolated solids and the liquors, from which the % Exo-depletion in the isolated solids was calculated. Several solids were also isolated at elevated temperatures to assess the impact of the isolation temperature on Exo-impurity depletion.
In addition, the solubility of D9 in the liquors was determined in most of the explored solvents and used to estimate the yield.

Structure (SMILES): CCCCCc1cc(OC(=O)c2ccc3ccccc3c2)c2c(c1)OC(C)(C)[C@@H]1CCC(C)=C[C@@H]21 [Form B, (6aR,10aR)-6a,7,8,10a-tetrahydro-6,6,9-trimethyl-3-pentyl-6H-dibenzo[b,d]pyran-1-yl ester]
- Relative thermodynamic stability [1]: metastable form
- Nature (thermodynamic stability of crystal form) ([1]; Table 6 summary): Metastable
- solubility ([2]; 1,4-Dioxane/MeOH (1:9), 25 °C, batch 5, 1,4-Dioxane/MeOH (1:9), seed E/G, heat T 50, isolation T 25, SP 3, 4.8 mL/g): 6000 µg/mL (≈ 12.8 mM)
- solubility ([2]; Anisole/MeOH (1:9), 5 °C, batch 5, Anisole/MeOH (1:9), seed G, heat T 40, isolation T 5, SP 10, 30.0 mL/g): 9800 µg/mL (≈ 20.9 mM)
- solubility ([2]; Cyclohexanone/EtOH (1:9), 25 °C, batch 5, Cyclohexanone/EtOH (1:9), seed G/H, heat T 55, isolation T 25, SP 16, 5.0 mL/g): 21100 µg/mL (≈ 45 mM)
- solubility ([2]; Cyclohexanone/MeOH (1:9), 25 °C, batch 5, Cyclohexanone/MeOH (1:9), seed G/H, heat T 60, isolation T 25, SP 12, 10.0 mL/g): 7600 µg/mL (≈ 16.2 mM)
- solubility ([2]; DMF/MeOH (1:9), 25 °C, batch 5, DMF/MeOH (1:9), seed D, heat T 50, isolation T 25, SP 2, 8.9 mL/g): 5200 µg/mL (≈ 11.1 mM)
- solubility ([2]; DMF/MeOH (1:9), 25 °C, batch 5, DMF/MeOH (1:9), seed G, heat T 50, isolation T 25, SP 3, 9.4 mL/g): 4700 µg/mL (≈ 10 mM)
- solubility ([2]; DMF/MeOH (1:9), 25 °C, batch 5, DMF/MeOH (1:9), seed G, heat T 60, isolation T 25, SP 9, 10.0 mL/g): 5100 µg/mL (≈ 10.9 mM)
- solubility ([2]; DMSO/MeOH (1:9), 25 °C, batch 5, DMSO/MeOH (1:9), seed D, heat T 50, isolation T 25, SP 2, 8.2 mL/g): 4100 µg/mL (≈ 8.75 mM)
- solubility ([2]; DMSO/MeOH (1:9), 25 °C, batch 5, DMSO/MeOH (1:9), seed D/G, heat T 60, isolation T 25, SP 9, 10.0 mL/g): 4200 µg/mL (≈ 8.96 mM)
- solubility ([2]; DMSO/MeOH (1:9), 25 °C, batch 5, DMSO/MeOH (1:9), seed G, heat T 50, isolation T 25, SP 4, 9.4 mL/g): 3700 µg/mL (≈ 7.9 mM)
- solubility ([2]; DMSO/MeOH (3:7), 25 °C, batch 5, DMSO/MeOH (3:7), seed D, heat T 50, isolation T 25, SP 2, 7.1 mL/g): 7500 µg/mL (≈ 16 mM)
- solubility ([2]; DMSO/MeOH (3:7), 25 °C, batch 5, DMSO/MeOH (3:7), seed G, heat T 50, isolation T 25, SP 4, 5.2 mL/g): 7000 µg/mL (≈ 14.9 mM)
- solubility ([2]; DMSO/acetone/MeOH (1.5:1.5:7), 25 °C, batch 5, DMSO/acetone/MeOH (1.5:1.5:7), seed D, heat T 50, isolation T 25, SP 2, 5.0 mL/g): 9100 µg/mL (≈ 19.4 mM)
- solubility ([2]; DMSO/acetone/MeOH (1.5:1.5:7), 25 °C, batch 5, DMSO/acetone/MeOH (1.5:1.5:7), seed G, heat T 50, isolation T 25, SP 4, 5.1 mL/g): 7200 µg/mL (≈ 15.4 mM)
- solubility ([2]; EtOAc/EtOH (1:9), 25 °C, batch 5, EtOAc/EtOH (1:9), seed H, heat T 55, isolation T 25, SP 21, 10.0 mL/g): 12000 µg/mL (≈ 25.6 mM)
- solubility ([2]; EtOAc/MeOH (1:3), 5 °C, batch 5, EtOAc/MeOH (1:3), seed G, heat T 25, isolation T 5, SP 11, 30.0 mL/g): 11200 µg/mL (≈ 23.9 mM)
- solubility ([2]; IPA, 25 °C, batch 5, IPA, seed G/H, heat T 50, isolation T 25, SP 14, 10.0 mL/g): 7300 µg/mL (≈ 15.6 mM)
- solubility ([2]; IPA/water (95:5), 25 °C, batch 5, IPA/water (95:5), seed G/H, heat T 60, isolation T 25, SP 12, 10.0 mL/g): 4500 µg/mL (≈ 9.6 mM)
- solubility ([2]; MEK/IPA (1:9), 25 °C, batch 5, MEK/IPA (1:9), seed G/H, heat T 55, isolation T 25, SP 15, 5.0 mL/g): 17200 µg/mL (≈ 36.7 mM)
- solubility ([2]; MEK/MeOH (1:9), 25 °C, batch 5, MEK/MeOH (1:9), seed G/H, heat T 60, isolation T 25, SP 12, 10.0 mL/g): 4500 µg/mL (≈ 9.6 mM)
- solubility ([2]; MEK/MeOH (3:7), 5 °C, batch 5, MEK/MeOH (3:7), seed G, heat T 25, isolation T 5, SP 11, 30.0 mL/g): 15800 µg/mL (≈ 33.7 mM)
- solubility ([2]; MEK/MeOH (3:7), 25 °C, batch 5, MEK/MeOH (3:7), seed G, heat T 25, isolation T 25, SP 7, 30.0 mL/g): 16800 µg/mL (≈ 35.8 mM)
- solubility ([2]; MeOH, 25 °C, batch 5, MeOH, seed E/G, heat T 50, isolation T 25, SP 3, 9.8 mL/g): 5000 µg/mL (≈ 10.7 mM)
- solubility ([2]; Toluene/EtOH (5:95), 25 °C, batch 5, Toluene/EtOH (5:95), seed H, heat T 55, isolation T 25, SP 21, 12.0 mL/g): 10300 µg/mL (≈ 22 mM)
- solubility ([2]; Toluene/MeOH (1:9), 5 °C, batch 5, Toluene/MeOH (1:9), seed G, heat T 40, isolation T 5, SP 10, 30.0 mL/g): 8700 µg/mL (≈ 18.6 mM)
- solubility ([2]; crystallisation liquors over suspended solid, 5 °C, batch 5, p-Xylene/MeOH (1:9), seed G, heat T 25, isolation T 5, SP 11, 40.0 mL/g): 9200 µg/mL (≈ 19.6 mM)
- solubility ([2]; crystallisation liquors over suspended solid, 25 °C, batch 2, IPA/water (95:5), seed G/H, heat T 55, isolation T 25, SP 13, 10.0 mL/g): 5600 µg/mL (≈ 11.9 mM)
- solubility ([2]; crystallisation liquors over suspended solid, 25 °C, batch 2, IPA/water (99:1), seed G/H, heat T 55, isolation T 25, SP 13, 10.0 mL/g): 7300 µg/mL (≈ 15.6 mM)
- solubility ([2]; crystallisation liquors over suspended solid, 25 °C, batch 5, Anisole/MeOH (1:9), seed G, heat T 40, isolation T 25, SP 8, 30.0 mL/g): 9600 µg/mL (≈ 20.5 mM)
- solubility ([2]; crystallisation liquors over suspended solid, 25 °C, batch 5, Cyclohexanone/IPA (1:9), seed G/H, heat T 45, isolation T 25, SP 15, 2.5 mL/g): 59200 µg/mL (≈ 126 mM)
- solubility ([2]; crystallisation liquors over suspended solid, 25 °C, batch 5, EtOAc/IPA (1:9), seed G/H, heat T 55, isolation T 25, SP 15, 7.4 mL/g): 15100 µg/mL (≈ 32.2 mM)
- solubility ([2]; crystallisation liquors over suspended solid, 25 °C, batch 5, EtOAc/MeOH (1:3), seed G, heat T 40, isolation T 25, SP 8, 30.0 mL/g): 11300 µg/mL (≈ 24.1 mM)
- solubility ([2]; crystallisation liquors over suspended solid, 25 °C, batch 5, EtOH, seed E/G, heat T 50, isolation T 25, SP 3, 9.6 mL/g): 6900 µg/mL (≈ 14.7 mM)
- solubility ([2]; crystallisation liquors over suspended solid, 25 °C, batch 5, MEK/EtOH (1:9), seed G/H, heat T 55, isolation T 25, SP 15, 10.0 mL/g): 11200 µg/mL (≈ 23.9 mM)
- solubility ([2]; crystallisation liquors over suspended solid, 25 °C, batch 5, Toluene/MeOH (1:9), seed G, heat T 40, isolation T 25, SP 8, 30.0 mL/g): 8400 µg/mL (≈ 17.9 mM)
- solubility ([2]; crystallisation liquors over suspended solid, 25 °C, batch 5, Toluene/MeOH (3:7), seed G, heat T 40, isolation T 25, SP 3, 5.5 mL/g): 53500 µg/mL (≈ 114 mM)
- solubility ([2]; crystallisation liquors over suspended solid, 25 °C, batch 5, n-BuOH, seed E/G, heat T 50, isolation T 25, SP 3, 9.8 mL/g): 14800 µg/mL (≈ 31.6 mM)
- solubility ([2]; crystallisation liquors over suspended solid, 25 °C, batch 5, n-BuOH, seed G, heat T 40, isolation T 25, SP 8, 10.0 mL/g): 16700 µg/mL (≈ 35.6 mM)
- solubility ([2]; liquors of the equilibrated crystallisation suspension, 25 °C, batch 2, IPA/water (95:5), seed G/H, heat T 55, isolation T 25, 10.0 mL/g, SP 13, Exp 43): 5600 µg/mL (≈ 11.9 mM)
- solubility ([2]; liquors of the equilibrated crystallisation suspension, 25 °C, batch 2, IPA/water (99:1), seed G/H, heat T 55, isolation T 25, 10.0 mL/g, SP 13, Exp 45): 7300 µg/mL (≈ 15.6 mM)
- solubility ([2]; liquors of the equilibrated crystallisation suspension, 25 °C, batch 5, Cyclohexanone/EtOH (1:9), seed G/H, heat T 55, isolation T 25, 5.0 mL/g, SP 16, Exp 32): 21100 µg/mL (≈ 45 mM)
- solubility ([2]; liquors of the equilibrated crystallisation suspension, 25 °C, batch 5, Cyclohexanone/IPA (1:9), seed G/H, heat T 45, isolation T 25, 2.5 mL/g, SP 15, Exp 39): 59200 µg/mL (≈ 126 mM)
- solubility ([2]; liquors of the equilibrated crystallisation suspension, 25 °C, batch 5, Cyclohexanone/MeOH (1:9), seed G/H, heat T 60, isolation T 25, 10.0 mL/g, SP 12, Exp 30): 7600 µg/mL (≈ 16.2 mM)
- solubility ([2]; liquors of the equilibrated crystallisation suspension, 25 °C, batch 5, EtOAc/EtOH (1:9), seed H, heat T 55, isolation T 25, 10.0 mL/g, SP 21, Exp 28): 12000 µg/mL (≈ 25.6 mM)
- solubility ([2]; liquors of the equilibrated crystallisation suspension, 25 °C, batch 5, EtOAc/IPA (1:9), seed G/H, heat T 55, isolation T 25, 7.4 mL/g, SP 15, Exp 35): 15100 µg/mL (≈ 32.2 mM)
- solubility ([2]; liquors of the equilibrated crystallisation suspension, 25 °C, batch 5, IPA/water (95:5), seed G/H, heat T 60, isolation T 25, 10.0 mL/g, SP 12, Exp 29): 4500 µg/mL (≈ 9.6 mM)
- solubility ([2]; liquors of the equilibrated crystallisation suspension, 25 °C, batch 5, IPA, seed G/H, heat T 50, isolation T 25, 10.0 mL/g, SP 14, Exp 31): 7300 µg/mL (≈ 15.6 mM)
- solubility ([2]; liquors of the equilibrated crystallisation suspension, 25 °C, batch 5, MEK/EtOH (1:9), seed G/H, heat T 55, isolation T 25, 10.0 mL/g, SP 15, Exp 40): 11200 µg/mL (≈ 23.9 mM)
- solubility ([2]; liquors of the equilibrated crystallisation suspension, 25 °C, batch 5, MEK/IPA (1:9), seed G/H, heat T 55, isolation T 25, 5.0 mL/g, SP 15, Exp 25): 17200 µg/mL (≈ 36.7 mM)
- solubility ([2]; liquors of the equilibrated crystallisation suspension, 25 °C, batch 5, MEK/MeOH (1:9), seed G/H, heat T 60, isolation T 25, 10.0 mL/g, SP 12, Exp 27): 4500 µg/mL (≈ 9.6 mM)
- solubility ([2]; liquors of the equilibrated crystallisation suspension, 25 °C, batch 5, Toluene/EtOH (5:95), seed H, heat T 55, isolation T 25, 12.0 mL/g, SP 21, Exp 33): 10300 µg/mL (≈ 22 mM)
